Assay results: publication PMC11649380 (Inorganic chemistry, 2022)
Read-outs that look alike come from different tables or passages of the source.

Assays:
[1] = Aquation kinetics of axial ligand dissociation by 1H NMR spectroscopy; type: physicochemical; conditions: for k1 × 10^5 (first aquation rate constant) / k2 × 10^4 (second aquation rate constant): 37 °C, pH 7.4 MOPS-buffered solution, 400 μM complex, 1H NMR; for half-life: mops buffer, pH 7.4
[2] = biological target: T1, mitochondrial calcium uniporter (MCU) (Homo sapiens, UniProt Q8NE86); assay: Mitochondrial Ca2+ uptake inhibition in digitonin-permeabilized HEK293T cells; type: cell-based
T1 sequence (Q8NE86 51-351): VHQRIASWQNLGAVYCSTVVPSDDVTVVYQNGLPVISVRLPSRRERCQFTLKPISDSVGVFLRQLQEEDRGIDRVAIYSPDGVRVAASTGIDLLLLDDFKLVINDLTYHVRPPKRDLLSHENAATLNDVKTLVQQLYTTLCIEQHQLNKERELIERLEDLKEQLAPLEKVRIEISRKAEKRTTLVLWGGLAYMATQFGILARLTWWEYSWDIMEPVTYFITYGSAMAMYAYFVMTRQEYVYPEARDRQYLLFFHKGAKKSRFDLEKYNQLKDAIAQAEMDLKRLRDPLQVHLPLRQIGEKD
T1 sequence (Q9H4I9 48-107 partner limits assumed): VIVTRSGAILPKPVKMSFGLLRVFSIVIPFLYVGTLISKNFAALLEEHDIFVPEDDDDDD

HEK293T cells = assay: Cellular uptake by GFAAS in HEK293T cells; type: cell-based; conditions: 50 μM for 2 h
[3] = ref [51], cited from earlier work
[4] = biological target: T2, organic cation transporter 3 (OCT3) (Homo sapiens, UniProt O75751); assay: Role of OCT3 in cellular uptake; type: cell-based; conditions: HeLa, 50 μM complex, 1 μM decynium-22, 3 h
T2 sequence (O75751 1-556): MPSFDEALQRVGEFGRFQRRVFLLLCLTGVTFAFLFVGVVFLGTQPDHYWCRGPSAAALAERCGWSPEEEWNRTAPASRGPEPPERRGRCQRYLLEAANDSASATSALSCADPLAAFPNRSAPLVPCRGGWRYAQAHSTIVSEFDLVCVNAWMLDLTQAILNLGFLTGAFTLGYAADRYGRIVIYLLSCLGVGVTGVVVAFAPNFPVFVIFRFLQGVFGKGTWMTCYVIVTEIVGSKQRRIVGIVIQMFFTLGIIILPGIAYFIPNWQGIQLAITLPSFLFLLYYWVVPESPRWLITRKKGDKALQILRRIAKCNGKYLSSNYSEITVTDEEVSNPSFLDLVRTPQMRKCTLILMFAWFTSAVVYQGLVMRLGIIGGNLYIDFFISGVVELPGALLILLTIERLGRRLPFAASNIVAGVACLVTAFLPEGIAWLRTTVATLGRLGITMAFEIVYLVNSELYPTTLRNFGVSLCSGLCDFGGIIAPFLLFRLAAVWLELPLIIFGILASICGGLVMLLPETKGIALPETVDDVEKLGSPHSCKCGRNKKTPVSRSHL

HeLa cells = assay: Cellular uptake by GFAAS in HeLa cells; type: cell-based; conditions: 50 μM for 2 h
[5] = biological target: T1, mitochondrial calcium uniporter (MCU); conditions: read-out: IC50 of MCU-mediated mCa2+ uptake inhibition; permeabilized HEK293T cells (1 × 10^7 cells/mL); ref [46]; cited from earlier work

SMILES | k1 × 10^5 (first aquation rate constant) [1] [s^−1] | k2 × 10^4 (second aquation rate constant) [1] [s^−1] | half-life [1] [h] | other results
N.N.N.N.N.N.N.N.O=C[O-].O=C[O-].[N-3].[Ru+4].[Ru+4] [Complex 1, [(HCO2)Ru(NH3)4(μ-N)Ru(NH3)4(O2CH)](NO3)3] | 5.9 ± 0.2 | 3.6 ± 0.3 | 3.3 ± 0.1 | 
CC(=O)[O-].CC(=O)[O-].N.N.N.N.N.N.N.N.[N-3].[Ru+4].[Ru+4] [Complex 2, [(CH3CO2)Ru(NH3)4(μ-N)Ru(NH3)4(O2CCH3)](NO3)3] | 2.0 ± 0.5 | 3.0 ± 1.2 | 9.9 ± 2.4 | 
CCC(=O)[O-].CCC(=O)[O-].N.N.N.N.N.N.N.N.[N-3].[Ru+4].[Ru+4] [Complex 3, [(CH3CH2CO2)Ru(NH3)4(μ-N)Ru(NH3)4(O2CCH2CH3)](NO3)3] | 2.8 ± 0.1 | 3.3 ± 0.5 | 6.9 ± 0.2 | 
CCCC(=O)[O-].CCCC(=O)[O-].N.N.N.N.N.N.N.N.[N-3].[Ru+4].[Ru+4] [Complex 4, [(CH3(CH2)2CO2)Ru(NH3)4(μ-N)Ru(NH3)4(O2C(CH2)2CH3)](OSO2CF3)3] | 3.2 ± 0.1 | 2.8 ± 0.2 | 5.9 ± 0.2 | IC50 [2]: 18.7 ± 0.1 nM
N.N.N.N.N.N.N.N.[Cl][Ru+3].[N-]=[Ru][Cl] [Ru265, [ClRu(NH3)4(μ-N)Ru(NH3)4Cl]Cl3] |  |  |  | cellular uptake (intracellular Ru accumulation) (HEK293T cells): taken up by both cell lines to a similar extent; t1/2 (1) (half-life of first aquation step) ([3]; 37 °C, UV-vis spectroscopy): 2.28 min; k1 × 10^5 (first aquation rate constant) ([3]; 37 °C, determined using UV-vis spectroscopy, first aquation step only): 49.2 s^−1; half-life of aquation of axial chloride ligands ([3]; same conditions (pH 7.4, 37 °C)): approximately 2 min; cellular uptake in the presence of the OCT3 inhibitor decynium-22 [4]: diminished in the presence of the OCT3 inhibitor; mCa2+ uptake at 1 μM ([2]; freshly prepared 1 μM solutions, permeabilized HEK293T cells): complete abrogation of mCa^2+ uptake; cellular uptake (intracellular Ru accumulation) (HeLa cells): taken up by both cell lines to a similar extent
N.N.N.N.N.N.N.N.[Cl][Ru+3].[NH]=[Ru][Cl] [Ru265, [ClRu(NH3)4(μ-N)Ru(NH3)4Cl]Cl3] |  |  |  | IC50 [5]: 8.6 ± 2.2 nM
